In ChEMBL document CHEMBL5050833, “Novel cyclic trex1 inhibitors” (2020):

Assays:
[1] = Inhibition of human TREX1 exonuclease activity using labeled DNA oligonucleotide as substrate incubated for 30 mins and measured after 45 mins by fluorescence assay
[2] = Inhibition of mouse TREX1 exonuclease activity using labeled DNA oligonucleotide as substrate incubated for 30 mins and measured after 45 mins by fluorescence assay
Homo sapiens [3] = species: Homo sapiens; experiment: Binding affinity to recombinant human TREX1 incubated in PBS and measured by thermal shift binding assay; note: test concentration or dose not given here
Homo sapiens [4] = species: Homo sapiens; experiment: Binding affinity to recombinant human TREX1 incubated in assay buffer and measured by thermal shift binding assay; note: test concentration or dose not given here
Mus musculus [5] = species: Mus musculus; experiment: Binding affinity to recombinant mouse TREX1 incubated in PBS and measured by thermal shift binding assay; note: test concentration or dose not given here
Mus musculus [6] = species: Mus musculus; experiment: Binding affinity to recombinant mouse TREX1 incubated in assay buffer and measured by thermal shift binding assay; note: test concentration or dose not given here

Structure (SMILES)	IC50 [1]	IC50 [2]	ΔTm (Homo sapiens [3])	ΔTm (Homo sapiens [4])	ΔTm (Mus musculus [5])	ΔTm (Mus musculus [6])
N[C@@H]1C[C@H]2C(=O)N([C@H](CO)C(=O)NCc3ccc(Cl)c(Cl)c3)CCC(CCc3ccccc3)N2C1 (stereo partly drawn)	< 1000 nM	< 1000 nM	> 8 °C	> 8 °C	4 °C	4 °C
CC(C)C[C@H](C(=O)NCc1ccc(Cl)c(Cl)c1)N1CCC(CCc2ccccc2)N2C[C@H](N)C[C@H]2C1=O (stereo partly drawn)	< 1000 nM	< 1000 nM	> 8 °C	> 8 °C	4 °C	4 °C
N[C@@H]1C[C@H]2C(=O)N([C@H](Cc3ccc(O)cc3)C(=O)NCc3ccc(Cl)c(Cl)c3)CCC(CCc3ccccc3)N2C1 (stereo partly drawn)	< 1000 nM	< 1000 nM	> 8 °C	> 8 °C	4 °C	4 °C
